In ChEMBL document CHEMBL3885881, “DrugMatrix”:

Organism: Rattus norvegicus
Assay: DrugMatrix - Regimen: Daily Repeat
Type: toxicity, organism-based, Sprague-Dawley
Design: regimen Daily Repeat, gender Male, age 6-8 weeks
Details: in vivo, sc, 0 mg/kg, route mini-PUMP - SUBCUTANEOUS, dose level Control, vehicle 100 % SALINE; for ABSOLUTE BASOPHIL / ABSOLUTE EOSINOPHIL / ABSOLUTE LYMPHOCYTE / ABSOLUTE MONOCYTE / ABSOLUTE SEGMENTED NEUTROPHIL / BASOPHIL / EOSINOPHIL / ERYTHROCYTE COUNT / HEMATOCRIT / HEMOGLOBIN / LEUKOCYTE COUNT / LYMPHOCYTE / MEAN CORPUSCULAR HEMOGLOBIN / MEAN CORPUSCULAR HEMOGLOBIN CONCENTRATION / MEAN CORPUSCULAR VOLUME / MONOCYTE / NEUTROPHIL / NUCLEATED RED BLOOD CELLS / PLATELET COUNT: tissue Blood; for ALANINE AMINOTRANSFERASE / ALBUMIN / ALKALINE PHOSPHATASE / ASPARTATE AMINOTRANSFERASE / BLOOD UREA NITROGEN / CARBON DIOXIDE / CHLORIDE / CHOLESTEROL / CREATININE / GLUCOSE / LACTATE DEHYDROGENASE / LIPASE / PHOSPHORUS / POTASSIUM / SODIUM / TOTAL BILIRUBIN / TOTAL PROTEIN / URIC ACID: tissue Plasma

## CNC[C@H](O)c1cccc(O)c1 [PHENYLEPHRINE]
72 h, time 3 day
  ABSOLUTE BASOPHIL: 0 CELLS/uL
  ABSOLUTE EOSINOPHIL: 77.17 CELLS/uL
  ABSOLUTE LYMPHOCYTE: 14293.83 CELLS/uL
  ABSOLUTE MONOCYTE: 354 CELLS/uL
  ABSOLUTE SEGMENTED NEUTROPHIL: 1658.33 CELLS/uL
  BASOPHIL: 0%
  EOSINOPHIL: 0.5%
  ERYTHROCYTE COUNT: 6.27 x10E6/uL
  HEMATOCRIT: 36.95%
  HEMOGLOBIN: 13.4 G/DL
  LEUKOCYTE COUNT: 16.38 x10E3/uL
  LYMPHOCYTE: 87.17%
  MEAN CORPUSCULAR HEMOGLOBIN: 21.42 pg
  MEAN CORPUSCULAR HEMOGLOBIN CONCENTRATION: 36.27 G/DL
  MEAN CORPUSCULAR VOLUME: 59.03 fL
  MONOCYTE: 2%
  NEUTROPHIL: 10.33%
  NUCLEATED RED BLOOD CELLS: 0 /100WBC
  PLATELET COUNT: 904.67 x10E3/uL
  ALANINE AMINOTRANSFERASE: 48.33 u/L
  ALBUMIN: 3.82 G/DL
  ALKALINE PHOSPHATASE: 282.33 u/L
  ASPARTATE AMINOTRANSFERASE: 86.83 u/L
  BLOOD UREA NITROGEN: 20.17 mg/dL
  CARBON DIOXIDE: 34.67 mmol/L
  CHLORIDE: 102 MEQ/L
  CHOLESTEROL: 71.5 mg/dL
  CREATININE: 0.2 mg/dL
  GLUCOSE: 136.83 mg/dL
  LACTATE DEHYDROGENASE: 159 u/L
  LIPASE: 9 u/L
  PHOSPHORUS: 10.12 mg/dL
  POTASSIUM: 5.92 MEQ/L
  SODIUM: 147.8 MEQ/L
  TOTAL BILIRUBIN: 0.2 mg/dL
  TOTAL PROTEIN: 6.05 G/DL
  URIC ACID: 1.4 mg/dL
120 h, time 5 day
  ABSOLUTE BASOPHIL: 0 CELLS/uL
  ABSOLUTE EOSINOPHIL: 0 CELLS/uL
  ABSOLUTE LYMPHOCYTE: 14257.33 CELLS/uL
  ABSOLUTE MONOCYTE: 326 CELLS/uL
  ABSOLUTE SEGMENTED NEUTROPHIL: 3216.67 CELLS/uL
  BASOPHIL: 0%
  EOSINOPHIL: 0%
  ERYTHROCYTE COUNT: 6.11 x10E6/uL
  HEMATOCRIT: 36.22%
  HEMOGLOBIN: 13.18 G/DL
  LEUKOCYTE COUNT: 17.8 x10E3/uL
  LYMPHOCYTE: 80.5%
  MEAN CORPUSCULAR HEMOGLOBIN: 21.62 pg
  MEAN CORPUSCULAR HEMOGLOBIN CONCENTRATION: 36.42 G/DL
  MEAN CORPUSCULAR VOLUME: 59.37 fL
  MONOCYTE: 1.83%
  NEUTROPHIL: 17.67%
  NUCLEATED RED BLOOD CELLS: 0 /100WBC
  PLATELET COUNT: 1311 x10E3/uL
  ALANINE AMINOTRANSFERASE: 47 u/L
  ALBUMIN: 3.83 G/DL
  ALKALINE PHOSPHATASE: 260.33 u/L
  ASPARTATE AMINOTRANSFERASE: 76.17 u/L
  BLOOD UREA NITROGEN: 14.67 mg/dL
  CARBON DIOXIDE: 31.33 mmol/L
  CHLORIDE: 101.17 MEQ/L
  CHOLESTEROL: 75 mg/dL
  CREATININE: 0.16 mg/dL
  GLUCOSE: 152.67 mg/dL
  LACTATE DEHYDROGENASE: 147.33 u/L
  LIPASE: 9.33 u/L
  PHOSPHORUS: 10.97 mg/dL
  POTASSIUM: 6 MEQ/L
  SODIUM: 145.52 MEQ/L
  TOTAL BILIRUBIN: 0.17 mg/dL
  TOTAL PROTEIN: 5.83 G/DL
  URIC ACID: 1.27 mg/dL
[…], time 14 day
  ABSOLUTE BASOPHIL: 0 CELLS/uL
  ABSOLUTE EOSINOPHIL: 64.5 CELLS/uL
  ABSOLUTE LYMPHOCYTE: 12507.83 CELLS/uL
  ABSOLUTE MONOCYTE: 380.33 CELLS/uL
  ABSOLUTE SEGMENTED NEUTROPHIL: 2414 CELLS/uL
  BASOPHIL: 0%
  EOSINOPHIL: 0.5%
  ERYTHROCYTE COUNT: 6.1 x10E6/uL
  HEMATOCRIT: 35.4%
  HEMOGLOBIN: 12.88 G/DL
  LEUKOCYTE COUNT: 15.37 x10E3/uL
  LYMPHOCYTE: 80.83%
  MEAN CORPUSCULAR HEMOGLOBIN: 21.18 pg
  MEAN CORPUSCULAR HEMOGLOBIN CONCENTRATION: 36.43 G/DL
  MEAN CORPUSCULAR VOLUME: 58.17 fL
  MONOCYTE: 2.17%
  NEUTROPHIL: 16.5%
  NUCLEATED RED BLOOD CELLS: 0.17 /100WBC
  PLATELET COUNT: 1016 x10E3/uL
  ALANINE AMINOTRANSFERASE: 53.33 u/L
  ALBUMIN: 3.93 G/DL
  ALKALINE PHOSPHATASE: 319.83 u/L
  ASPARTATE AMINOTRANSFERASE: 84 u/L
  BLOOD UREA NITROGEN: 15.5 mg/dL
  CARBON DIOXIDE: 34 mmol/L
  CHLORIDE: 101.83 MEQ/L
  CHOLESTEROL: 57 mg/dL
  CREATININE: 0.21 mg/dL
  GLUCOSE: 182.33 mg/dL
  LACTATE DEHYDROGENASE: 104.67 u/L
  LIPASE: 9.17 u/L
  PHOSPHORUS: 11.12 mg/dL
  POTASSIUM: 5.81 MEQ/L
  SODIUM: 144.85 MEQ/L
  TOTAL BILIRUBIN: 0.18 mg/dL
  TOTAL PROTEIN: 5.92 G/DL
  URIC ACID: 1.38 mg/dL
